Test results taken from patent US4997843A, “2,4-disubstituted derivatives of tetrahydrofuran useful for the treatment of PAF mediated illnesses” (J Uriach & Cia S.A., priority 1987, dated 1991).
Where two headings read alike, the source gives them in different places.

Key:
[1] = tested on: hypotension induced by PAF; assay: Test 2: inhibition of the hypotensive effect induced by PAF in normotense rats; type: in vivo, male Sprague Dawley rats; details: anesthetized rats, compound via femoral vein 3 min before PAF (0.5 mg/Kg, i.v.); for ED50: Rattus norvegicus, iv, read-out: IC50 (inhibition of the hypotension induced by PAF)
Procedure: TEST 2--INHIBITION OF THE HYPOTENSIVE EFFECT INDUCED BY PAF IN NORMOTENSE RATS
Male Sprague Dawley rats, of 180-220 g of weight, anesthetized with sodium pentobarbital (50 mg/Kg, i.p. 1 mL/100 g) have been used. In order to measure the average arterial pressure a polyethylene catheter was introduced into the carotid artery. The arterial pressure was recorded with the help of a transducer connected with a R611 Beckman polygraph. The tested compounds were administrated through the femoral vein 3 min. before the injection of PAF (0.5 mg/Kg, i.v.).

[2] = tested on: platelet aggregation induced by PAF; assay: Test 1: inhibition of platelet aggregation induced by PAF in vitro (rabbit platelet rich plasma, Born nephelometric technique); type: cell-based, male New Zealand albino rabbits; details: PAF C18 16 nM final, read-out: IC50 (concentration of the drug needed to inhibit the platelet aggregation in a 50%)
Procedure: TEST 1: INHIBITION OF PLATELET AGGREGATION INDUCED BY PAF
The platelet rich plasma (PRP) is prepared by blood centrifugation at 250 xg for 10 min. at 4° C. and it is diluted with platelet poor plasma (PPP) obtained by additional centrifugation at 300 xg for 10 min. The amount of platelets is adjusted to […].

[3] = Oryctolagus cuniculus, Platelet

| SMILES | IC50 [2, 3] [µM] | ED50 [1] [mg/kg] | further results |
| --- | --- | --- | --- |
| CCCCCCCCCCCCCCC1COC(COCCCCCC[n+]2ccsc2)C1 (racemic) [Compound 70, (±)-cis, trans-3-[6-[(4-tetradecyltetrahydrofuran-2-yl)methoxy]hexyl]thiazolium 4-methylbenzenesulphonate] | 2.2 | 2.2 |  |
| CCCCCCCCCCCCCCC1COC(COCCCCCCC[n+]2ccsc2)C1 (racemic) [Compound 82, (±)-cis, trans-3-[7-[(4-tetradecyltetrahydrofuran-2-yl)methoxy]heptyl]thiazolium 4-methylbenzenesulfonate] | 1.8 | 1.5 |  |
| CCCCCCCCCCCCCCC1COC(COC(=O)CCCCC[n+]2ccn(C)c2)C1 (racemic) [Compound 78, (±)-cis, trans-3-methyl-1-[6-[(4-tetradecyltetrahydrofuran-2-yl)methoxy]-6-oxohexyl]imidazolium 4-methylbenzenesulfonate] | 210 |  |  |
| CCCCCCCCCCCCCCC1COC(COCCCC[n+]2ccsc2)C1 (racemic) [Compound 79, (±)-cis, trans-3-[4-[(4-tetradecyltetrahydrofuran-2-yl)methoxy]butyl]thiazolium 4-methylbenzenesulfonate] | 39 |  |  |
| CCCCCCCCCCCCCC[C@@H]1CO[C@H](COCCCCCC[n+]2ccsc2)C1 (relative stereo) [Compound 83, (±)-cis-3-[6-[(4-tetradecyltetrahydrofuran-2-yl)methoxy]hexyl]thiazolium4-methylbenzenesulfonate] | 2.6 |  |  |
| CCCCCCCCCCCCCCC1COC(COC(=O)CCCCC[N+](C)(C)C)C1 (racemic) [Compound 76] | 180 |  |  |
| CCCCCCCCCCCCCCC1COC(COCCCCCC[n+]2ccccc2)C1 (racemic) [Compound 74, (±)-cis, trans-1-[6-[(4-tetradecyltetrahydrofuran-2-yl)methoxy]hexyl]pyridinium methanesulfonate] | 6.3 |  |  |
| CCCCCCCCCCCCCCCCCCC1COC(COC(=O)N(Cc2cccc[n+]2CC)C(C)=O)C1 (racemic) [Compound 113] | 0.2 | 0.2 |  |
| CCCCCCCCCCCCCCCCOCC1COC(COC(=O)CCCCC[n+]2ccsc2)C1 (racemic) [Compound 5, (±)-cis, trans-3-[6-[(4-hexadecyloxymethyltetrahydrofuran-2-yl)methoxy]-6-oxohexyl]thiazolium 4-methylbenzenesulfonate] | 4.8 | 1.6 |  |
| CCCCCCCCCCCCCC[C@@H]1CO[C@@H](COCCCCCC[n+]2ccsc2)C1 (racemic) [Compound 84, (±)-trans-3-[6-[(4-tetradecyltetrahydrofuran-2-yl)methoxy]hexyl]thiazolium 4-methylbenzenesulfonate] |  |  | IC50 ([2]; Oryctolagus cuniculus): 2.6 µM |
| CCCCCCCCCCCCCCCCCCOCC1COC(COC(=O)N(Cc2cccc[n+]2C)C(C)=O)C1 (racemic) [Compound 19, (±)-cis, trans-N-methyl-2-[N-acetyl-[[[(4-octadecyloxymethyltetrahydrofuran-2-yl)methoxy]carbonyl]amino]methyl]pyridinium iodide] | 0.09 | 0.14 |  |
| CCCCCCCCCCCCCCCCOCC1CC(COCCCCCC[n+]2ccsc2)CO1 (mixture of isomers) [Compound 63, (35)-cis, trans-3-[6-[(2-hexadecyloxymethyltetrahydrofuran-4-yl)methoxy]hexyl]thiazolium 4-methylbenzenesulfonate] | 1.4 | 2.5 |  |
| CCCCCCCCCCCCCCCCCCOCC1COC(COC(=O)CCCCC[n+]2ccsc2)C1 (racemic) [Compound 6, (±)-cis, trans-3-[6-[(4-octadecyloxymethyltetrahydrofuran-2-yl)methoxy]-6-oxohexyl]thiazolium 4-methylbenzenesulfonate] | 8.6 | 1.9 |  |
| CCCCCCCCCCCCCCCCOCC1COC(COC(=O)N(Cc2cccc[n+]2CC)C(C)=O)C1 (racemic) [Compound 58, (±)-cis, trans-N-ethyl-2-[N-acetyl-[[[(4-hexadecyloxymethyltetrahydrofuran-2-yl)methoxy]carbonyl]amino]methyl]pyridinium chloride] |  |  | IC50 (inhibition of the hypotension induced by PAF) [1]: 0.044 mg/Kg, i.v.; IC50 [2]: 0.009 µM |
| CCCCCCCCCCCCCCC1COC(COC(=O)N(Cc2cccc[n+]2C)C(C)=O)C1 (racemic) [Compound 109, (±)-cis,trans-N-methyl-2-[N-acetyl-[[[(4-tetradecyltetrahydrofuran-4-yl]methoxy]carbonyl]amino]methyl]pyridinium iodide] | 0.24 | 0.39 |  |
| CCCCCCCCCCCCCCOCC1COC(COCCCCCC[n+]2ccsc2)C1 (racemic) [Compound 3, (±)-cis, trans-3-[6-[(4-tetradecyloxymethyltetrahydrofuran-2-yl)methoxy]hexyl]thiazolium 4-methylbenzenesulfonate] | 0.7 | 3 |  |
| CCCCCCCCCCCCCCC1COC(COCCCCCC[n+]2ccn(C)c2)C1 (racemic) [Compound 73, (±)-cis, trans-3-methyl-1-[6-[(4-tetradecyltetrahydrofuran-2-yl)methoxy]hexyl]imidazolium 4-methylbenzenesulfonate] | 15 |  |  |
| CCCCCCCCCCCCCCC1COC(COC(=O)CCCCC[n+]2ccccc2)C1 (racemic) [Compound 77, (±)-cis, trans-1-[6-[(4-tetradecyltetrahydrofuran-2-yl)methoxy]-6-oxohexyl]pyridinium 4-methylbenzenesulfonate] | 120 |  |  |

The next lines start with results.

| IC50 [2, 3] [µM] | SMILES | ED50 [1] [mg/kg] | further results |
| --- | --- | --- | --- |
| 1.4 | CCCCCCCCCCCCCCCCOCC1COC(COCCCCCC[n+]2ccsc2)C1 (racemic) [Compound 4, (±)-cis, trans-3-[6-[(4-hexadecyloxymethyltetrahydrofuran-2-yl)methoxy]hexyl]thiazolium 4-methylbenzenesulfonate] | 1.2 |  |
| 3.4 | CCCCCCCCCCCCCCC1COC(COCCCCCC[n+]2cccc3ccccc32)C1 (racemic) [Compound 72, (±)-cis, trans-1-[6-[(4-tetradecyltetrahydrofuran-2-yl)methoxy]hexyl]quinolinium 4-methylbenzenesulfonate] | 3.2 |  |
| 0.0045 | CCCCCCCCCCCCCCCNC(=O)OCC1COC(COC(=O)N(Cc2cccc[n+]2CC)C(C)=O)C1 (racemic) [Compound 49, (±)-cis, trans-N-ethyl-2-[N-acetyl-[[[(4-pentadecylaminocarbonyloxymethyltetrahydrofuran-2-yl)methoxy]-carbonyl]amino]methyl]pyridinium iodide] | 0.033 |  |
| 0.14 | CCCCCCCCCCCCCCCCCCOCC1CC(COC(=O)N(Cc2cccc[n+]2C)C(C)=O)CO1 (racemic) [Compound 68, (±)-cis, trans-N-methyl-2-[N-acetyl-[[[(2-octadecyloxymethyltetrahydrofuran-4-yl)methoxy]carbonyl]amino]methyl]pyridinium iodide] | 0.11 |  |
| 50 | CCCCCCCCCCCCCCC1COC(COC(=O)CCCCC[n+]2ccsc2)C1 (racemic) [Compound 75, (±)-cis, trans-3-[6-[(4-tetradecyltetrahydrofuran-2-yl)methoxy]-6-oxohexyl]thiazolium 4-methylbenzenesulfonate] |  |  |
| 0.034 | CCCCCCCCCCCCCCCCCCOCC1COC(COC(=O)N(Cc2cccc[n+]2CC)C(C)=O)C1 (racemic) [Compound 20, (±)-cis, trans-N-ethyl-2-[N-acetyl-[[[(4-octadecyloxymethyltetrahydrofuran-2yl)methoxy]carbonyl]amino]methyl]pyridinium iodide] | 0.035 |  |
| 5.9 | CCCCCCCCCCCCCCCNC(=O)OCC1COC(COC(=O)CCCCC[n+]2ccsc2)C1 (racemic) [Compound 7, (±)-cis, trans-3-[6-oxo-6-[(4-pentadecylaminocarbonyloxymethyltetrahydrofuran-2-yl)methoxy]hexyl]thiazolium 4-methylbenzenesulfonate] | 3.6 |  |
| 75 | CCCCCCCCCCCCCCC1COC(COCCCC[n+]2ccccc2C)C1 (racemic) [Compound 80, (±)-cis, trans-2-methyl-1-[4-[(4-tetradecyltetrahydrofuran-2-yl)methoxy]butyl]pyridinium 4-methylbenzenesulfonate] |  |  |
| 2.1 | CCCCCCCCCCCCCCCCCCOCC1CC(COCCCCC[n+]2ccsc2)CO1 (racemic) [Compound 62, (±)-cis, trans-3-[5-[(2-octadecyloxymethyltetrahydrofuran-4-yl)methoxy]pentyl]thiazolium 4-methylbenzenesulfonate] |  |  |
| 8.2 | CCCCCCCCCCCCCCC1COC(COCCCCCC[N+](C)(C)C)C1 (racemic) [Compound 71, (±)-cis, trans-6-[6-(4-tetradecyltetrahydrofuran-2-yl)methoxy]N,N,N-trimethylhexaminium 4-methylbenzenesulfonate] |  |  |
| 51 | CCCCCCCCCCCCCCC1COC(COCCCC[N+]2(C)CCOCC2)C1 (racemic) [Compound 81, (±)-cis, trans-4-methyl-4-[4-[(4-tetradecyltetrahydrofuran-2-yl)methoxy]butyl]morpholinium 4-methylbenzenesulfonate] |  |  |
